Article PMC5218480 (PLoS ONE, 2017)

Test system: MV-4-11 cells
Assay: Gene expression microarray analysis (Affymetrix PrimeView) and GSEA
Format: cell-based, human
Design: RFU PODN (11730768_x_at) / Fold change /veh PODN (11730768_x_at) / RFU LINC00158 (11744669_a_at) / Fold change /veh LINC00158 (11744669_a_at) / RFU DUSP10 (11751237_a_at) / Fold change /veh DUSP10 (11751237_a_at) / RFU ID3 (11757404_x_at) / Fold change /veh ID3 (11757404_x_at) / RFU PLEKHG5 (11737974_s_at) / Fold change /veh PLEKHG5 (11737974_s_at) / RFU LRRC4B (11730491_at) / Fold change /veh LRRC4B (11730491_at) / RFU GIMAP4 (11747438_a_at) / Fold change /veh GIMAP4 (11747438_a_at) / RFU KRT8 (11758183_x_at) / Fold change /veh KRT8 (11758183_x_at) / RFU CNN1 (11734310_a_at) / Fold change /veh CNN1 (11734310_a_at) / RFU VPS37D (11726825_at) / Fold change /veh VPS37D (11726825_at) / RFU C10orf10 (11716522_x_at) / Fold change /veh C10orf10 (11716522_x_at) / RFU KIR2DL2 /// KIR2DL4 /// KIR2DL5A /// KIR2DL5B /// KIR2DS1 /// KIR2DS2 /// KIR2DS3 /// KIR2DS4 /// KIR3DL3 /// KIR3DL3 /// KIR3DS1 (11738374_at) / Fold change /veh KIR2DL2 /// KIR2DL4 /// KIR2DL5A /// KIR2DL5B /// KIR2DS1 /// KIR2DS2 /// KIR2DS3 /// KIR2DS4 /// KIR3DL3 /// KIR3DL3 /// KIR3DS1 (11738374_at) / RFU C1QL1 (11718748_at) / Fold change /veh C1QL1 (11718748_at) / RFU TMPRSS4 (11747572_a_at) / Fold change /veh TMPRSS4 (11747572_a_at) / RFU HAMP (11756126_x_at) / Fold change /veh HAMP (11756126_x_at) / RFU RNFT2 (11725882_a_at) / Fold change /veh RNFT2 (11725882_a_at) / RFU NR4A2 (11747474_a_at) / Fold change /veh NR4A2 (11747474_a_at) / RFU ABCC12 (11746883_a_at) / Fold change /veh ABCC12 (11746883_a_at) / RFU TMEM136 (11760407_x_at) / Fold change /veh TMEM136 (11760407_x_at) / RFU CLDN22 /// WWC2 (11732394_at) / Fold change /veh CLDN22 /// WWC2 (11732394_at) / RFU HLA-DPB1 (11760878_x_at) / Fold change /veh HLA-DPB1 (11760878_x_at) / RFU SPINT1 (11716480_a_at) / Fold change /veh SPINT1 (11716480_a_at) / RFU GAP43 (11754022_s_at) / Fold change /veh GAP43 (11754022_s_at) / RFU A4GNT (11735810_at) / Fold change /veh A4GNT (11735810_at) / RFU PRB3 (11715151_x_at) / Fold change /veh PRB3 (11715151_x_at) / RFU TUBB4B (11761932_at) / Fold change /veh TUBB4B (11761932_at) / RFU CAPN14 (11732068_a_at) / Fold change /veh CAPN14 (11732068_a_at) / RFU TMCC2 (11721928_a_at) / Fold change /veh TMCC2 (11721928_a_at) / RFU IRGQ (11745062_a_at) / Fold change /veh IRGQ (11745062_a_at) / RFU FAM174B (11720279_a_at) / Fold change /veh FAM174B (11720279_a_at) / RFU TMPRSS4 (11748680_a_at) / Fold change /veh TMPRSS4 (11748680_a_at) / RFU FAM212B (11763350_a_at) / Fold change /veh FAM212B (11763350_a_at) / RFU PLEKHG5 (11743358_a_at) / Fold change /veh PLEKHG5 (11743358_a_at) / RFU ZSCAN30 (11745921_a_at) / Fold change /veh ZSCAN30 (11745921_a_at) / RFU CMKLR1 (11741424_a_at) / Fold change /veh CMKLR1 (11741424_a_at) / RFU LOC101060620 /// MAPK8IP1 (11723275_at) / Fold change /veh LOC101060620 /// MAPK8IP1 (11723275_at) / RFU SPTSSB (11747773_x_at) / Fold change /veh SPTSSB (11747773_x_at) / RFU PRSS12 (11739890_at) / Fold change /veh PRSS12 (11739890_at) / RFU BIN1 (11741810_x_at) / Fold change /veh BIN1 (11741810_x_at) / RFU WNT11 (11732464_a_at) / Fold change /veh WNT11 (11732464_a_at) / RFU C10orf10 (11716521_a_at) / Fold change /veh C10orf10 (11716521_a_at) / RFU C5orf56 (11738089_at) / Fold change /veh C5orf56 (11738089_at) / RFU CYB561 (11721691_x_at) / Fold change /veh CYB561 (11721691_x_at) / RFU ANKRD19P (11752326_a_at) / Fold change /veh ANKRD19P (11752326_a_at) / RFU OR2T12 /// OR2T33 /// OR2T8 (11738714_s_at) / Fold change /veh OR2T12 /// OR2T33 /// OR2T8 (11738714_s_at) / RFU VCAN (11748164_a_at) / Fold change /veh VCAN (11748164_a_at) / RFU JSRP1 (11732532_at) / Fold change /veh JSRP1 (11732532_at) / RFU KRTAP10-11 (11738290_x_at) / Fold change /veh KRTAP10-11 (11738290_x_at) / RFU MYO3A (11730013_a_at) / Fold change /veh MYO3A (11730013_a_at) / RFU EBF3 (11725865_a_at) / Fold change /veh EBF3 (11725865_a_at) / RFU CAMK2N1 (11719241_x_at) / Fold change /veh CAMK2N1 (11719241_x_at) / RFU C5orf56 (11738088_a_at) / Fold change /veh C5orf56 (11738088_a_at) / RFU OLFML3 (11715873_a_at) / Fold change /veh OLFML3 (11715873_a_at) / RFU LOC100653217 /// NTM (11731650_a_at) / Fold change /veh LOC100653217 /// NTM (11731650_a_at) / RFU MAPK11 (11762145_a_at) / Fold change /veh MAPK11 (11762145_a_at) / RFU FIZ1 (11724087_x_at) / Fold change /veh FIZ1 (11724087_x_at) / RFU OASL (11726364_x_at) / Fold change /veh OASL (11726364_x_at) / RFU SOX15 (11748057_x_at) / Fold change /veh SOX15 (11748057_x_at) / RFU CD79A (11719716_a_at) / Fold change /veh CD79A (11719716_a_at) / RFU HIST1H1D (11736915_at) / Fold change /veh HIST1H1D (11736915_at) / RFU CASKIN2 (11723855_a_at) / Fold change /veh CASKIN2 (11723855_a_at) / RFU LOC730098 (11760151_x_at) / Fold change /veh LOC730098 (11760151_x_at) / RFU OR4N2 (11742367_at) / Fold change /veh OR4N2 (11742367_at) / RFU PRRT2 (11749266_a_at) / Fold change /veh PRRT2 (11749266_a_at) / RFU SNX32 (11753110_a_at) / Fold change /veh SNX32 (11753110_a_at) / RFU CDHR5 (11726645_a_at) / Fold change /veh CDHR5 (11726645_a_at) / RFU RCAN1 (11760418_a_at) / Fold change /veh RCAN1 (11760418_a_at) / RFU FAM167A (11723789_a_at) / Fold change /veh FAM167A (11723789_a_at) / RFU FAM26E (11764081_at) / Fold change /veh FAM26E (11764081_at) / RFU ISYNA1 (11749810_s_at) / Fold change /veh ISYNA1 (11749810_s_at) / RFU ACY1 (11761880_at) / Fold change /veh ACY1 (11761880_at) / RFU 11764098_at / Fold change /veh 11764098_at / RFU SAMD14 (11745864_x_at) / Fold change /veh SAMD14 (11745864_x_at) / RFU NPB (11741838_a_at) / Fold change /veh NPB (11741838_a_at) / RFU TMPRSS6 (11731388_a_at) / Fold change /veh TMPRSS6 (11731388_a_at) / RFU KRTAP10-2 (11738614_at) / Fold change /veh KRTAP10-2 (11738614_at) / RFU ARHGAP8 /// PRR5-ARHGAP8 (11727945_x_at) / Fold change /veh ARHGAP8 /// PRR5-ARHGAP8 (11727945_x_at) / RFU KRTAP5-7 /// NADSYN1 (11734609_at) / Fold change /veh KRTAP5-7 /// NADSYN1 (11734609_at) / RFU RASL12 (11751679_a_at) / Fold change /veh RASL12 (11751679_a_at) / RFU CDKN2B (11736163_a_at) / Fold change /veh CDKN2B (11736163_a_at) / RFU PRF1 (11729649_at) / Fold change /veh PRF1 (11729649_at) / RFU, ZNF638 /// ZNF638-IT1 / Fold change vs veh, ZNF638 /// ZNF638-IT1 / RFU, PANK3 / Fold change vs veh, PANK3 / RFU, SH3YL1 / Fold change vs veh, SH3YL1 / RFU, ZEB2 / Fold change vs veh, ZEB2 / RFU, NRIP1 / Fold change vs veh, NRIP1 / RFU, PTTG1IP / Fold change vs veh, PTTG1IP / RFU, CAPN2 / Fold change vs veh, CAPN2 / RFU, MED14 / Fold change vs veh, MED14 / RFU, SNORA58 / Fold change vs veh, SNORA58 / RFU, C1orf63 / Fold change vs veh, C1orf63 / RFU, LRRFIP1 / Fold change vs veh, LRRFIP1 / RFU, NDUFAF7 / Fold change vs veh, NDUFAF7 / RFU, SLC12A2 / Fold change vs veh, SLC12A2 / RFU, IBTK / Fold change vs veh, IBTK / RFU, ESF1 / Fold change vs veh, ESF1 / Fold change vs veh, TMEM50B / RFU, TAOK1 / Fold change vs veh, TAOK1 / RFU, ACBD3 / Fold change vs veh, ACBD3 / RFU, TMA16 / Fold change vs veh, TMA16 / RFU, RWDD3 / Fold change vs veh, RWDD3 / RFU, BCAT1 / Fold change vs veh, BCAT1 / RFU, EDEM3 / Fold change vs veh, EDEM3 / RFU, TMEM33 / Fold change vs veh, TMEM33 / RFU, WDR75 / Fold change vs veh, WDR75 / RFU, AHCTF1 / Fold change vs veh, AHCTF1 / RFU, TFRC / Fold change vs veh, TFRC / RFU, ZDHHC17 / Fold change vs veh, ZDHHC17 / RFU, NOM1 / Fold change vs veh, NOM1 / RFU, ARL8B / Fold change vs veh, ARL8B / RFU, ZBTB11 / Fold change vs veh, ZBTB11 / RFU, TAMM41 / Fold change vs veh, TAMM41 / RFU, KIAA1704 /// LOC100996395 / Fold change vs veh, KIAA1704 /// LOC100996395 / RFU, ING1 / Fold change vs veh, ING1 / RFU, TRMT61B / Fold change vs veh, TRMT61B / RFU, FUBP3 / Fold change vs veh, FUBP3 / RFU, TP53 / Fold change vs veh, TP53 / RFU, TNKS2 / Fold change vs veh, TNKS2 / RFU, ZFP14 / Fold change vs veh, ZFP14 / RFU, ACTR2 / Fold change vs veh, ACTR2 / RFU, PPP3R1 / Fold change vs veh, PPP3R1 / RFU, PIK3R1 / Fold change vs veh, PIK3R1 / RFU, HNRNPA1 / Fold change vs veh, HNRNPA1 / RFU, RNF170 / Fold change vs veh, RNF170 / RFU, ZNF28 / Fold change vs veh, ZNF28 / RFU, RNGTT / Fold change vs veh, RNGTT / RFU, OGT / Fold change vs veh, OGT / RFU, BRD1 / Fold change vs veh, BRD1 / RFU, MARS / Fold change vs veh, MARS / RFU, ZNF655 / Fold change vs veh, ZNF655 / RFU, FAHD1 / Fold change vs veh, FAHD1 / RFU, BDP1 / Fold change vs veh, BDP1 / RFU, LRRCC1 / Fold change vs veh, LRRCC1 / RFU, ARID1A / Fold change vs veh, ARID1A / RFU, ZNF146 / Fold change vs veh, ZNF146 / RFU, ZNF330 / Fold change vs veh, ZNF330 / RFU, GPN3 / Fold change vs veh, GPN3 / RFU, C9orf123 / Fold change vs veh, C9orf123 / RFU, N4BP2L2 / Fold change vs veh, N4BP2L2 / RFU, ARFIP1 / Fold change vs veh, ARFIP1 / RFU, FAM179B / Fold change vs veh, FAM179B / RFU, BCL10 / Fold change vs veh, BCL10 / RFU, UHRF1BP1L / Fold change vs veh, UHRF1BP1L / RFU, BET1 / Fold change vs veh, BET1 / RFU, CNOT2 / Fold change vs veh, CNOT2 / RFU, ZNF268 / Fold change vs veh, ZNF268 / Fold change vs veh, ZNF507 / RFU, DGCR2 / Fold change vs veh, DGCR2 / RFU, WDSUB1 / Fold change vs veh, WDSUB1 / Fold change vs veh, HSP90B1 /// MIR3652 / RFU, ADSS / Fold change vs veh, ADSS / RFU, GK / Fold change vs veh, GK / RFU, ZNF148 / Fold change vs veh, ZNF148 / RFU, TAF9 / Fold change vs veh, TAF9 / RFU, SLC1A5 / Fold change vs veh, SLC1A5 / RFU, SLMO2 / Fold change vs veh, SLMO2 / RFU, ABCC4 / Fold change vs veh, ABCC4 / RFU, LOC101060439 /// RAP1B / Fold change vs veh, LOC101060439 /// RAP1B / RFU, RFX7 / Fold change vs veh, RFX7 / RFU, GTPBP10 / Fold change vs veh, GTPBP10 / RFU, CNEP1R1 / Fold change vs veh, CNEP1R1 / RFU, BIVM-ERCC5 /// ERCC5 / Fold change vs veh, BIVM-ERCC5 /// ERCC5 / RFU, ILF3 / Fold change vs veh, ILF3 / RFU 11762660_at / Fold change /veh 11762660_at / RFU VCAN (11757783_s_at) / Fold change /veh VCAN (11757783_s_at) / RFU DDX43 (11728927_at) / Fold change /veh DDX43 (11728927_at) / RFU KRT8 (11758188_x_at) / Fold change /veh KRT8 (11758188_x_at) / RFU NKD1 (11759106_at) / Fold change /veh NKD1 (11759106_at) / RFU SRD5A1 (11742802_a_at) / Fold change /veh SRD5A1 (11742802_a_at) / RFU TPSAB1 /// TPSB2 (11721975_s_at) / Fold change /veh TPSAB1 /// TPSB2 (11721975_s_at) / RFU GSTM3 (11746129_a_at) / Fold change /veh GSTM3 (11746129_a_at) / RFU IL23R (11737362_x_at) / Fold change /veh IL23R (11737362_x_at) / RFU TMEM51 (11727254_a_at) / Fold change /veh TMEM51 (11727254_a_at) / RFU PIWIL2 (11732686_x_at) / Fold change /veh PIWIL2 (11732686_x_at) / RFU ORM1 (11744905_x_at) / Fold change /veh ORM1 (11744905_x_at) / RFU CCDC152 (11743942_at) / Fold change /veh CCDC152 (11743942_at) / RFU ECM1 (11717891_a_at) / Fold change /veh ECM1 (11717891_a_at) / RFU IL23R (11748794_a_at) / Fold change /veh IL23R (11748794_a_at) / RFU TNFAIP8L3 (11732012_x_at) / Fold change /veh TNFAIP8L3 (11732012_x_at) / RFU MBOAT4 (11741988_at) / Fold change /veh MBOAT4 (11741988_at) / RFU 11764193_at / Fold change /veh 11764193_at / RFU TMEM53 (11763286_at) / Fold change /veh TMEM53 (11763286_at) / RFU MAGEB2 (11727129_at) / Fold change /veh MAGEB2 (11727129_at) / RFU TMEM200A (11744735_a_at) / Fold change /veh TMEM200A (11744735_a_at) / RFU CCDC152 (11751479_a_at) / Fold change /veh CCDC152 (11751479_a_at) / RFU FAM211A (11726209_a_at) / Fold change /veh FAM211A (11726209_a_at) / RFU RGS16 (11746705_a_at) / Fold change /veh RGS16 (11746705_a_at) / RFU VCAN (11755009_s_at) / Fold change /veh VCAN (11755009_s_at) / RFU RHOB (11743442_s_at) / Fold change /veh RHOB (11743442_s_at) / RFU RGS16 (11720943_a_at) / Fold change /veh RGS16 (11720943_a_at) / RFU RGS16 (11720944_at) / Fold change /veh RGS16 (11720944_at) / RFU, VPS4B / Fold change vs veh, VPS4B / RFU, CREB1 / Fold change vs veh, CREB1 / RFU, DNAJC13 / Fold change vs veh, DNAJC13 / RFU, GNAQ / Fold change vs veh, GNAQ / RFU, CDK5R1 / Fold change vs veh, CDK5R1 / RFU, ZRANB3 / Fold change vs veh, ZRANB3 / RFU, CUL4A / Fold change vs veh, CUL4A / RFU, CCNY / Fold change vs veh, CCNY / RFU, UFL1 / Fold change vs veh, UFL1 / RFU, COG3 / Fold change vs veh, COG3 / RFU, DIAPH2 / Fold change vs veh, DIAPH2 / RFU, SKA2 / Fold change vs veh, SKA2 / RFU, AFF3 / Fold change vs veh, AFF3 / RFU, LMF1 / Fold change vs veh, LMF1 / RFU, IPO11 / Fold change vs veh, IPO11 / RFU, DFFB / Fold change vs veh, DFFB / RFU, FOXP1 / Fold change vs veh, FOXP1 / RFU, CARD8 / Fold change vs veh, CARD8 / RFU, STRN3 / Fold change vs veh, STRN3 / RFU, ADK / Fold change vs veh, ADK / RFU, RASSF2 / Fold change vs veh, RASSF2 / RFU, WIPF1 / Fold change vs veh, WIPF1 / RFU, LARP1B / Fold change vs veh, LARP1B / RFU, RASA1 / Fold change vs veh, RASA1 / RFU, RB1 / Fold change vs veh, RB1 / RFU, PPFIA1 / Fold change vs veh, PPFIA1 / RFU, MAT2A / Fold change vs veh, MAT2A / RFU, CCT5 / Fold change vs veh, CCT5 / RFU, WDR92 / Fold change vs veh, WDR92 / RFU, CUX1 / Fold change vs veh, CUX1 / RFU, TTC7A / Fold change vs veh, TTC7A / RFU, TMEM135 / Fold change vs veh, TMEM135 / RFU, DEPTOR / Fold change vs veh, DEPTOR / RFU, CPM / Fold change vs veh, CPM / RFU, DNAJB6 / Fold change vs veh, DNAJB6 / RFU, CACNA2D3 / Fold change vs veh, CACNA2D3 / RFU, DTX4 / Fold change vs veh, DTX4 / RFU, TFCP2 / Fold change vs veh, TFCP2 / RFU, GMCL1 /// GMCL1P1 / Fold change vs veh, GMCL1 /// GMCL1P1 / RFU, AEBP2 / Fold change vs veh, AEBP2 / RFU, SNHG1 /// SNORD22 /// SNORD25 /// SNORD26 /// SNORD27 /// SNORD28 /// SNORD29 /// SNORD31 / Fold change vs veh, SNHG1 /// SNORD22 /// SNORD25 /// SNORD26 /// SNORD27 /// SNORD28 /// SNORD29 /// SNORD31 / Fold change (Aza/veh), C12orf56 (ProbeSet 11735607_a_at) / Fold change (ACY-1035/veh), C12orf56 (ProbeSet 11735607_a_at) / Fold change (Aza/veh), FGFR1OP (ProbeSet 11751329_s_at) / Fold change (ACY-1035/veh), FGFR1OP (ProbeSet 11751329_s_at) / Fold change (Aza/veh), VPS36 (ProbeSet 11739960_a_at) / Fold change (ACY-1035/veh), VPS36 (ProbeSet 11739960_a_at) / RFU SYPL1 (11715823_x_at) / Fold change /veh SYPL1 (11715823_x_at) / RFU IGFBP7 (11715501_s_at) / Fold change /veh IGFBP7 (11715501_s_at) / RFU REEP3 (11722064_at) / Fold change /veh REEP3 (11722064_at) / RFU IGLL1 (11728026_x_at) / Fold change /veh IGLL1 (11728026_x_at): dose or concentration left out as unconfirmed
Conditions: ProbeSet 11718569_a_at; LIST D

Nc1ncn([C@@H]2O[C@H](CO)[C@@H](O)[C@H]2O)c(=O)n1 [azacitidine]
RFU, WIPF1: 81.62 RFU
